Columns and labels:
[1] = tested on: phosphorylation of CAMKK2, AMPKα and AKT in PSMA-expressing and PSMA-negative (PC3-wt) cells; test: Phosphorylation status by isoelectric focusing (NanoPro); type: cell-based, human; conditions: for CAMKK2 phosphorylation: 5 μM, 48 h, FIG. 3b
Method: CAMKK2, AMPKα and AKT antibodies were purchased from Cell Signaling (Danvers, Mass.). Cells were grown to confluence and treated with 2-PMPA (5 μM, Tocris) for 48 h. The phosphorylation status of proteins of interest was determined with an isoelectric-focusing instrument (NanoPro1000, Protein Simple, Santa Clara, Calif.), where the samples were prepared and analyzed according to the supplier's guidelines. Determination of site-specific phosphorylation of key proteins was performed with a human phosphor-kinase array (ARY003, R&D Systems, Minneapolis, Minn.), according to the product's instructions.
Phosphorylation state of calcium dependent downstream effectors was analyzed. Since activation of metabotropic glutamate receptors and their associated G proteins can lead to phosphorylation of downstream effectors, phosphorylation levels of key proteins relative to PSMA expression was examined. The NanoPro system from Protein Simple was used, which allowed the determination of global phosphorylation status based on the isoelectric point changes of the target protein. The samples were prepared according to the supplier's guidelines, following lysis of the cells with the NanoPro lysis buffer. All antibodies used were purchased from Cell Signaling, detecting the total protein levels of a target protein. […] (FIG. 3b). […] It has been previously shown that either G protein-activated PI3K or calcium-activated mTORC2 phosphorylating PAK can cause Akt's phosphorylation. All graphs depict mean±s.e.m.

[2] = tested on: LNCaP, LNCaP-KD, PC3-PSMA and PC3-wt cells; test: In vitro chemotherapy, cell viability (Alamar blue)
Method: Cells were seeded in a 96-well format (2,500 cells per well), and grown for 48 h. They were then treated with the following drugs at a final concentration of 200 nM: Doxorubicin, Taxol, AZD6244, BEZ235, Lapatinib, and Velcade (all purchased from Selleck Chemicals, Houston, Tex.). For combination therapy, cells were treated with 2-PMPA (5 μM final concentration). After overnight incubation in the presence of the drugs, cell viability was determined with the Alamar blue method according to the supplier's guidelines (Life Technologies, Carlsbad, Calif.)
Given that PSMA affects the phosphorylation status of multiple targets, it was investigated whether inhibition of PSMA can counteract resistance to various chemotherapeutics used in the clinic or under clinical trials. LNCaP and PCS3-PSMA cells were seeded at a density of 2,500 cells per well in a 96-well format, and after 48 hours growth the cells were treated with the drugs (Doxorubicin (Adriamycin; DNA intercalator), Taxol (Paclitaxel; microtubule stabilizer), AZD6244 (Selumetinib; MEK1 & ERK1/2 inhibitor), BEZ235 (Dactolisib; PI3K & mTOR inhibitor), Lapatinib (EGFR and ErbB2 inhibitor), or Velcade (Bortezomib; 20S proteasome inhibitor), 200 nM final concentration in 1×PBS) or with the drugs (200 nM final concentration) and 2-PMPA (5 μM final concentration). After overnight incubation, cell viability was assessed fluorimetrically with the Alamar blue method (Invitrogen), according to the supplier's protocol.

LNCaP-wt xenografts = test: Photoacoustic imaging of tumor vascularization and oxygenation; type: in vivo, male athymic, nude mice; conditions: 0.4 mM, 100 μL retro-orbital injection daily
Method: Male, athymic, nude mice (Harlan Laboratories, Indianapolis, Ind.) were implanted with LNCaP xenografts (3 million cells in 100 μL Matrigel). Immediately post xengraft implantation, the mice were treated daily iv with 2-PMPA (0.4 mM, 100 μL retro-orbital injection). Tumor vascularization and oxygenation was assessed 15 days after treatment commencements, using the Vevo LAZR small-animal photoacoustic imaging platform (Visualsonics, Toronto, ON, Canada).
The tumors used in the study had roughly the same size. […] (FIG. 6 a-b). […] (FIG. 6c)

nitric oxide synthase = test: Nitric oxide synthase activity (total nitrate levels); type: cell-based, human; conditions: 5 μM, 48 h
Method: Gene expression array was performed after TRIzol-based RNA extraction on an U133A 2.0 gene array (Affymetrix, Santa Clara, Calif.). The output of the androgen receptor (AR) pathway was assessed by measuring the levels of prostate specific antigen (PSA). LNCaP cells that have a functional AR pathway were obtained from ATCC (Manassas, Va.) and grown to confluence. Then they were treated for 48 h with 2-PMPA (5 μM) for 48 h, followed by screening of the culture medium for secreted PSA with the DELFIA PSA assay (Perkin Elmer, Waltham, Mass.). The levels of nitric oxide attributed to nitric oxide synthase's activity and the concentration of total secreted prostaglandins were quantified with the corresponding kits purchased from Cayman Chemicals (Ann Arbor, Mich.). Alterations in energy production due to signaling changes were determined through quantification of the intracellular NAD+ and ATP lelels, using the NAD assay from Cayman Chemicals (Ann Arbor, Mich.) and the StayBrite ATP kit from Biovision (Milpitas, Calif.).
Furthermore, it was examined whether PSMA inhibition affects the activity of nitric oxide synthase and the levels of prostaglandins, since both Akt and Ca+2 regulate these processes. […]

`O=C(O)CCC(CP(=O)(O)O)C(=O)O` (stereo not drawn) [2-PMPA] was tested, and the CAMKK2 phosphorylation ([1]; PSMA-expressing cells) was “decreased CAMKK2's phosphorylation”, the “phosphorylation of AMPKα” value ([1]; PSMA-positive cells, FIG. 3c) was “impaired” and the “phosphorylation of AKT” value ([1]; PSMA-positive cells, FIG. 3d) was “impaired”. The CAMKK2 phosphorylation ([1]; cells lacking PSMA) was “no effect”, the “effect of 2-PMPA on toxicity of chemotherapeutics (cell viability)” value ([2]; PSMA-expressing cells, drugs 200 nM plus 2-PMPA 5 μM, overnight, FIG. 7a-d) was “enhanced the toxicity of all chemotherapeutics” and the “cytotoxic effect of the inhibitor alone” value ([2]; for the study's time-course) was “no cytotoxic effect”. The “tumor total hemoglobin levels” value (LNCaP-wt xenografts; FIG. 6a-b) was “lower total hemoglobin levels”, the “tumor consumption of oxygen” value (LNCaP-wt xenografts; FIG. 6c) was “lower consumption of oxygen” and the tumor oxygenation (LNCaP-wt xenografts; versus saline) was “lower tumor oxygenation”. For the same compound, the tumor vascularization (LNCaP-wt xenografts; versus saline, FIG. 6a-b) was “lower tumor vascularization”, the nitrate concentration (nitric oxide synthase; PC3-wt cells that do not express PSMA) was “did not affect nitrate concentration” and the “nitric oxide synthase activity (nitrate levels)” value (nitric oxide synthase; PSMA-expressing cells, FIG. 5c-d) was “decreased nitric oxide synthase activity”.

Source: patent US20170252433A1, “PSMA-RELATED THERAPIES” (Memorial Sloan Kettering Cancer Center, priority 2014, published 2017)
